According to the NIST ThermoML archive (doi:10.1016/j.jct.2008.01.009):
Numbers after ± are expanded uncertainties.

Columns and labels:
[1] = molar heat capacity at saturation pressure; details: Liquid, Small (less than 1 g) adiabatic calorimetry
[2] = Molar enthalpy of transition or fusion; details: Crystal 1; Adiabatic calorimetry
[3] = for vapor or sublimation pressure / mass density: Liquid; for mass density: Vibrating tube method
[4] = molar heat capacity at constant pressure; details: 101.33 kPa, Vacuum adiabatic calorimetry

C1=Cc2ccccc2CC1 [1,2-dihydronaphthalene]
Details	Triple point temperature [K]	mass density [kg/m3]	molar heat capacity [J/K/mol]
[1], 410.93 K	–	–	257.02 ± 1.2
[1], 426.18 K	–	–	263.43 ± 1.3
[1], 438.72 K	–	–	268.69 ± 1.3
[3], 323.15 K	–	971.8 ± 0.2	–
[3], 348.15 K	–	951.1 ± 0.2	–
[3], 373.15 K	–	930.3 ± 0.2	–
[3], 398.15 K	–	909.7 ± 0.2	–
[3], 423.15 K	–	889.1 ± 0.2	–
[3], 448.15 K	–	867.8 ± 0.2	–
[3], 473.15 K	–	846.1 ± 0.2	–
[3], Crystal 1, Adiabatic calorimetry	264.38 ± 0.05	–	–

Details	Molar enthalpy of transition or fusion [kcal/mol]
[2]	2.5198 ± 0.00239

Details	molar heat capacity at constant pressure [J/K/mol]	vapor or sublimation pressure [kPa]
[3], 290 K, Inclined piston gauge	–	0.0253 ± 0.001
[3], 299.97 K, Inclined piston gauge	–	0.0534 ± 0.0011
[3], 310 K, Inclined piston gauge	–	0.1078 ± 0.0011
[3], 319.99 K, Inclined piston gauge	–	0.2047 ± 0.0012
[3], 329.98 K, Inclined piston gauge	–	0.3717 ± 0.0014
[3], 339.99 K, Inclined piston gauge	–	0.6472 ± 0.0018
[3], 349.98 K, Inclined piston gauge	–	1.086 ± 0.0024
[3], 359.98 K, Inclined piston gauge	–	1.76 ± 0.0031
[3], 362.71 K, Twin ebulliometer	–	1.998 ± 0.01
[3], 364.97 K, Inclined piston gauge	–	2.214 ± 0.0038
[3], 369.18 K, Twin ebulliometer	–	2.671 ± 0.011
[3], 369.98 K, Inclined piston gauge	–	2.766 ± 0.0044
[3], 378.73 K, Twin ebulliometer	–	4.013 ± 0.011
[3], 385.76 K, Twin ebulliometer	–	5.332 ± 0.011
[3], 396.37 K, Twin ebulliometer	–	7.999 ± 0.012
[3], 404.33 K, Twin ebulliometer	–	10.67 ± 0.013
[3], 410.79 K, Twin ebulliometer	–	13.33 ± 0.014
[3], 417.49 K, Twin ebulliometer	–	16.67 ± 0.015
[3], 423.06 K, Twin ebulliometer	–	19.93 ± 0.017
[3], 430.39 K, Twin ebulliometer	–	25.02 ± 0.019
[3], 437.8 K, Twin ebulliometer	–	31.18 ± 0.022
[3], 445.24 K, Twin ebulliometer	–	38.56 ± 0.025
[3], 452.74 K, Twin ebulliometer	–	47.37 ± 0.029
[3], 460.3 K, Twin ebulliometer	–	57.81 ± 0.033
[3], 467.91 K, Twin ebulliometer	–	70.1 ± 0.038
[3], 475.59 K, Twin ebulliometer	–	84.53 ± 0.044
[3], 483.32 K, Twin ebulliometer	–	101.33 ± 0.05
[3], 491.1 K, Twin ebulliometer	–	120.79 ± 0.06
[3], 498.94 K, Twin ebulliometer	–	143.26 ± 0.07
[3], 506.84 K, Twin ebulliometer	–	169.03 ± 0.07
[4], 5 K, Crystal 3	0.28 ± 0.02	–
[4], 10 K, Crystal 3	2.69 ± 0.03	–
[4], 20 K, Crystal 3	13.26 ± 0.083	–
[4], 30 K, Crystal 3	24.12 ± 0.091	–
[4], 40 K, Crystal 3	33.18 ± 0.11	–
[4], 50 K, Crystal 3	40.87 ± 0.12	–
[4], 60 K, Crystal 3	47.15 ± 0.13	–
[4], 70 K, Crystal 3	52.76 ± 0.15	–
[4], 80 K, Crystal 3	57.88 ± 0.16	–
[4], 90 K, Crystal 3	62.79 ± 0.27	–
[4], 100 K, Crystal 3	67.58 ± 0.27	–
[4], 120 K, Crystal 3	77.47 ± 0.27	–
[4], 140 K, Crystal 3	90.29 ± 0.29	–
[4], 146 K, Crystal 2	95.59 ± 0.3	–
[4], 146 K, Crystal 3	95.33 ± 0.3	–
[4], 160 K, Crystal 2	104.39 ± 0.31	–
[4], 180 K, Crystal 2	115.29 ± 0.32	–
[4], 194.4 K, Crystal 1	126.5 ± 0.32	–
[4], 194.4 K, Crystal 2	124.59 ± 0.32	–
[4], 200 K, Crystal 1	129.36 ± 0.33	–
[4], 220 K, Crystal 1	141.06 ± 0.34	–
[4], 240 K, Crystal 1	155.01 ± 0.36	–
[4], 250 K, Liquid	191.22 ± 0.39	–
[4], 260 K, Crystal 1	171.24 ± 0.37	–
[4], 260 K, Liquid	195.03 ± 0.4	–
[4], 264.38 K, Crystal 1	175.09 ± 0.37	–
[4], 264.38 K, Liquid	196.72 ± 0.4	–
[4], 280 K, Liquid	202.59 ± 0.4	–
[4], 298.15 K, Liquid	209.64 ± 0.41	–
[4], 300 K, Liquid	210.37 ± 0.41	–
[4], 320 K, Liquid	218.52 ± 0.42	–
[4], 340 K, Liquid	226.88 ± 0.42	–
[4], 360 K, Liquid	235.35 ± 0.43	–
[4], 380 K, Liquid	243.89 ± 0.44	–
[4], 400 K, Liquid	252.39 ± 0.45	–
[4], 420 K, Liquid	260.86 ± 0.46	–
[4], 440 K, Liquid	269.35 ± 0.47	–
[4], 460 K, Liquid	277.87 ± 0.47	–
[4], 480 K, Liquid	286.36 ± 0.49	–
[4], 500 K, Liquid	294.85 ± 0.5	–
